Source: the NIST ThermoML archive (doi:10.1021/acs.jced.8b01146)
± gives the expanded uncertainty stated by the source.

Conditions: 100 kPa, Liquid, Vibrating tube method

Structure (SMILES)	mass density (288.15 K)	mass density (293.15 K)	mass density (298.15 K)	mass density (303.15 K)	mass density (308.15 K)	mass density (313.15 K)	mass density (318.15 K)	mass density (323.15 K)
CCC1CCC(=O)O1 (stereo not given) [2(3H)-furanone, 5-ethyldihydro-]	1029.16 ± 0.54 kg/m3	1024.74 ± 0.54 kg/m3	1020.33 ± 0.53 kg/m3	1015.91 ± 0.53 kg/m3	1011.49 ± 0.53 kg/m3	1007.07 ± 0.53 kg/m3	1002.65 ± 0.53 kg/m3	998.229 ± 0.53 kg/m3
CC1CCC(=O)O1 (stereo not given) [γ-valerolactone]	1058.51 ± 0.51 kg/m3	1053.81 ± 0.51 kg/m3	1049.1 ± 0.51 kg/m3	1044.4 ± 0.51 kg/m3	1039.69 ± 0.51 kg/m3	1034.98 ± 0.51 kg/m3	1030.27 ± 0.51 kg/m3	1025.56 ± 0.51 kg/m3
CC1=CCC(=O)O1 [5-methylfuran-2(3H)-one]	1099.32 ± 0.7 kg/m3	1093.94 ± 0.7 kg/m3	1088.55 ± 0.69 kg/m3	1083.16 ± 0.69 kg/m3	1077.77 ± 0.69 kg/m3	1072.38 ± 0.68 kg/m3	1066.98 ± 0.68 kg/m3	1061.58 ± 0.67 kg/m3
O=C1CCCO1 [γ-butyrolactone]	1134.26 ± 0.51 kg/m3	1129.35 ± 0.51 kg/m3	1124.44 ± 0.51 kg/m3	1119.53 ± 0.51 kg/m3	1114.61 ± 0.51 kg/m3	1109.69 ± 0.51 kg/m3	1104.77 ± 0.51 kg/m3	1099.86 ± 0.51 kg/m3
CC1CCCC(=O)O1 (stereo not given) [2H-pyran-2-one, tetrahydro-6-methyl-]	1053.81 ± 0.51 kg/m3	1049.47 ± 0.51 kg/m3	1045.14 ± 0.51 kg/m3	1040.81 ± 0.51 kg/m3	1036.48 ± 0.51 kg/m3	1032.15 ± 0.51 kg/m3	1027.82 ± 0.51 kg/m3	1023.51 ± 0.51 kg/m3
